Patent publication US6610748B1, “Preventives/remedies for skin aging” (Fujisawa Pharmaceutical Co., Ltd., priority 1998, dated 2003)
“Also recorded” adds a separate entry of the source. Counter-ions that a name gives are not always drawn. Like-named read-outs stand apart in the source and are kept apart here.

Tests used:
hairless dogs [1] = assay: Skin condition (remission of wrinkles) in old hairless dogs, gross observation and video macroscope; format: in vivo, dog; details: 0.2% and 0.02% in PEG
Procedure: (§1) The therapeutic efficacy of neutrophil (leukocyte) elastase inhibitors in “dermal aging” was evaluated in hairless dogs.
(§2) Two adult (old) experimental hairless dogs constructed by cross-breeding of a Mexican hairless dog and a beagle dog were used. Old dogs presenting with age-associated fine “wrinkles” , not observed in young dogs, on the body surface were used as subject animals.
5) Polyethylene glycol (PEG) (solvent control) (PEG was used as the solvent for drugs 1˜4)
(§3) Each drug was applied in one location (a total of 5 locations) on the back (5×5 cm) of each dog. The drug was applied in a dosing volume of about 4 μL/cm^2 once daily (except on Saturdays, Sundays and holidays) for 3 months.
1) Skin condition: Gross observation and observation with a video macroscope

hairless dogs [2] = assay: Histology of biopsy samples from old hairless dogs (van Gieson's stain, Weigert's stain); format: in vivo; details: Dog No. 8807, 3 months
Procedure: The therapeutic efficacy of neutrophil (leukocyte) elastase inhibitors in “dermal aging” was evaluated in hairless dogs. Two adult (old) experimental hairless dogs constructed by cross-breeding of a Mexican hairless dog and a beagle dog were used. Old dogs presenting with age-associated fine “wrinkles” , not observed in young dogs, on the body surface were used as subject animals. Each drug was applied in one location (a total of 5 locations) on the back (5×5 cm) of each dog. The drug was applied in a dosing volume of about 4 μL/cm^2 once daily (except on Saturdays, Sundays and holidays) for 3 months. 2) Histology: Observation of histological changes in biopsy samples by H-E (hematoxylin-eosin) stain (general staining) , van Gieson's stain (staining of collagen fiber) and Weigert's stain (staining of elastin fiber)

hairless dogs [3] = assay: Skin thickness: thickness of the epidermis (excluding the horny layer) in H-E stained tissue samples of old hairless dogs; format: in vivo, dog; details: for Thickness of the epidermis, value after the arrow (after treatment): FK706 0.2% topical once daily for 3 months; for Thickness of the epidermis, value after the arrow (after treatment) / Thickness of the epidermis, value before the arrow (initial): mean±SD
Procedure: as §1, §2, §3

[4] = qualitative, by solvent, cited from earlier work
[5] = gross observation, dog No. 8807 (10 yr old, male), about 4 μL/cm2 on the back once daily for 3 months
[6] = gross observation, dog No. 8808 (10 yr old, female), about 4 μL/cm2 on the back once daily for 3 months
[7] = observation with a video macroscope, dog No. 8807, once daily for 3 months
[8] = observation with a video macroscope, dog No. 8808, once daily for 3 months

Compound | Order of efficacy in the elimination or remission of wrinkles (hairless dogs [1]; [5]) | Order of efficacy in the elimination or remission of wrinkles (hairless dogs [1]; [6]) | Order of efficacy in the elimination or remission of wrinkles (hairless dogs [1]; [7]) | Order of efficacy in the elimination or remission of wrinkles (hairless dogs [1]; [8]) | Histological finding, Weigert's stain (elastin fiber) (hairless dogs [2]; topical) | Histological finding, van Gieson's stain (collagen fiber) (hairless dogs [2]; FK706 0.2% topical) | Thickness of the epidermis, value after the arrow (after treatment) (hairless dogs [3]; Dog No. 8807) [μm] | Thickness of the epidermis, value before the arrow (initial) (hairless dogs [3]; Dog No. 8807, location treated with FK706 0.2%) [μm] | Thickness of the epidermis, value after the arrow (after treatment) (hairless dogs [3]; Dog No. 8808) [μm] | Thickness of the epidermis, value before the arrow (initial) (hairless dogs [3]; Dog No. 8808, location treated with FK706 0.2%) [μm] | Change in thickness of the epidermis (hairless dogs [3]; location treated with FK706 0.2%, p<0.05 in both Dog 8807 and Dog 8808) | Solubility ([4]; disodium salt) | Solubility ([4]; dipotassium salt)
CC(C)C(NC(=O)[C@@H]1CCCN1C(=O)[C@@H](NC(=O)c1ccc(C(=O)NCC(=O)O)cc1)C(C)C)C(=O)C(F)(F)F (mixture of isomers) [FK706, 3 (RS)-[[4-(carboxymethylaminocarbonyl)phenyl-carbonyl]-L-valyl-L-prolyl]amino-1,1,1-trifluoro-4-methyl-2-oxopentane] | FK706·0.1%>FK706·0.02%>FR134043·0.2%=FR134043·0.02% | FK706·0.2%>FK706·0.02%>FR134043·0.2%=FR134043·0.02% | FK706·0.2%>FK706·0.02%>FR134043·0.2%>FR134043·0.02% | FK706·0.2%=FK706·0.02%>FR134043·0.2%=FR134043 0.02% | Growth of elastin fibrils (suspected to be oxytalan fiber which is said to disappear as increasing age) was found across the boundary between the epidermis and dermis | Neogenesis of a thin layer of collagen fiber was found across the boundary between the epidermis and dermis | 26.8±5.9 | 17.0±1.9 | 42.0±9.0 | 24.6±3.6 | increased significantly |  | 
C/C=C1\NC(=O)C2NC(=O)C(NC(=O)C(C)C)CCCNC(=O)Nc3cc(OS(=O)(=O)O)c(OS(=O)(=O)O)cc3C[C@@H](C(=O)NC(C(C)C)C(=O)OC2C)N(C)C(=O)C(Cc2ccccc2)N2C(=O)[C@H](CC[C@H]2O)NC1=O (some centres unmarked) [FR134043, WS7622A disulfate ester disodium salt] | FK706·0.1%>FK706·0.02%>FR134043·0.2%=FR134043·0.02% | FK706·0.2%>FK706·0.02%>FR134043·0.2%=FR134043·0.02% | FK706·0.2%>FK706·0.02%>FR134043·0.2%>FR134043·0.02% | FK706·0.2%=FK706·0.02%>FR134043·0.2%=FR134043 0.02% |  |  |  |  |  |  |  | Soluble: water, methanol; also recorded: Insoluble: chloroform, n-hexane | 
WS7622A disulfate ester dipotassium salt |  |  |  |  |  |  |  |  |  |  |  |  | Soluble: water, methanol; also recorded: Insoluble: chloroform, n-hexane
